# “And” between values parts separate entries of the source, which are not always exact repeats. Identical values can stand only once. Bridges are numbered along the chain shown (N, C = ends). Where no end group is shown, it is not given here.
# Key:
# [1] = tested on: Claudin-5 at tight junction of mouse brain endothelial bEnd.3 cells; experiment: Claudin-5 immunocytochemistry at tight junction in mouse brain endothelial cell cultures; type: cell-based
# Description: To understand the effect of NX218 on the TEER and permeability of mouse brain endothelial cells in examples 3 and 4, the levels of the tight junction protein Claudin-5 were assessed using immunocytochemistry.
# (§1) Mouse brain endothelial cells (bEnd.3, American Type Culture Collection) were cultured in DMEM supplemented with 10% fetal FBS and 2 mM sodium pyruvate in a 5% CO2 incubator at 37° C.
# bEnd.3 cells were seeded on 1% fibronectin-coated Nunc Lab-Tek II Chamber Slides in culture medium (1×10^5 cells per well in 300 μL). Two days after seeding, cells were treated with vehicle or NX218 (1, 10 and 100 μM) for 1, 2 or 3 days. Cells were then fixed for 10 min at room temperature (RT) with 4% paraformaldehyde in phosphate buffered saline (PBS), washed twice with PBS and incubated with 5% normal goat serum and 0.05% Triton X-100 in PBS for 1 h at RT before overnight incubation with polyclonal rabbit anti-claudin-5 ( 1/100; 34-1600, Invitrogen) at 4° C. Cells were then washed three times with PBS and incubated with goat anti-rabbit Cy3 secondary antibody ( 1/500; ab6939, Abcam) for 2 h at RT and counterstained with Hoechst 33258 to visualize nuclei. The slide was removed from the chamber and mounted with Aqua Poly/Mount before visualization by confocal laser scanning/microscopy. Claudin-5 immunoreactivity (intensity) at membrane localization was finally quantified to evaluate Claudin-5 protein levels. The data are expressed as a percentage of the control condition.
# A second independent experiment using the protocol described at example 5 was performed. Pooling the data from the 2 experiments (the first experiment was done in triplicate, the 2nd in duplicate, n=5) improves the statistical power and allow to reach statistical significance for a tendency observed at 72 hours timepoint.
# [2] = tested on: Occludin in mouse brain endothelial bEnd.3 cells; experiment: Occludin western blot in mouse brain endothelial cell cultures; type: cell-based; details: for Expression of Occludin, Average: average of N1-N8
# Description: To understand the effect of NX218 on the TEER and permeability of mouse brain endothelial cells, the levels of the tight junction protein Occludin were assessed using Western Blot.
# as §1
# bEnd.3 cells were seeded on 12-well plates (2.5×10^5 cells per well in 1,000 μL) for western-blot analyses. Two days after seeding, cells were treated with vehicle or NX218 (1, 10 and 100 μM) for 24 hours. Proteins were isolated from the cell layers with lysis buffer (62.5 mM Tris, 2% SDS, 10 mM dithiothreitol, 10 μL protease inhibitor cocktail/100 mL (Sigma-Aldrich)), centrifugated at 12,000 r.p.m for 20 min at 4° C., and supernatants were used for analysis of tight junction proteins. Protein concentrations were determined with the Pierce BCA protein assay (Thermo Scientific). Ten (10) μL of samples and standards (working range=125-2000 μg/mL) were loaded in duplicate into a 96-well plate and 200 μL of working reagent (50 parts BCA reagent A with 1 part BCA reagent B) were added to each well, mixed on a shaker and incubated at 37° C. for 30 min. The plate was cooled to RT and the absorbance read at 562 nm. Protein concentrations were calculated from a standard curve. Ten (10) μg total protein were loaded per well for separation by SDS-polyacrylamide gel electrophoresis (12% acrylamide). Gels were transferred onto methanol-activated polyvinylidene difluoride membranes (Merck Millipore) via semi-dry transfer. Transferred membranes were reactivated with methanol and blocked under slight agitation in tris-buffered saline (TBS)-Tween-20 containing 3% weight/volume Marvel non-fat dry milk for 1 h at RT. Blocked membranes were washed three times with TBS-Tween-20 and treated with primary rabbit polyclonal antibodies against Occludin (Novus Biotech, ref. NBP1-87402, 65 kDa, 1/1000 dilution) overnight at 4° C. Membranes were washed three times for 5 min in TBS-Tween-20 and incubated with horseradish peroxidase-conjugated goat anti-rabbit secondary antibody (A6154, Sigma-Aldrich) diluted 1/2,000 in TBS-Tween-20 for 2 h at RT. Secondary antibody was removed and membranes washed four times for 5 min in TBS-Tween-20. Blots were developed by enhanced chemiluminescence (ECL). A 1:1 mix of WesternBright ECL Luminol/enhancer solution and Peroxide Chemiluminescent solution (Advansta) was incubated at RT for 2 min before being directly added onto washed blots. The LiCor C-Digit Blot Scanner was used to detect chemiluminescence over a 12-minute exposure time.
substance,measurement,setting,value
W-S-G-W-S-S-C-S-R-S-C-G (WSGWSSCSRSCG; disulfide 7-11 (inferred)) [NX218],"Claudin-5 levels, result in words","[1]; 24 hours, NX218 at 10 and 100 μM",significant increase in Claudin-5 levels
same,Expression of Claudin-5 at tight junction,"[1]; FIG. 3, 24-hour treatment",increases the expression of Claudin-5 at tight junction
same,Expression of Claudin-5 at tight junction,"[1]; FIG. 5, 72-hour treatment",increases the expression of Claudin-5 at tight junction
same,"Expression of Claudin-5 at tight junction, Average","[1]; NX218 1 μM, 24 hours, bEnd.3, average of N1-N6",112.5 % of Control
same,Expression of Claudin-5 at tight junction,"[1]; NX218 1 μM, 24 hours, bEnd.3, individual replicates N1-N6",108.1 % of Control and 99.96 % of Control and 119.3 % of Control and 99.61 % of Control and 140.4 % of Control and 107.5 % of Control
same,"Expression of Claudin-5 at tight junction, Average","[1]; NX218 1 μM, 48 hours, bEnd.3, average of N1-N6",80.63 % of Control
same,Expression of Claudin-5 at tight junction,"[1]; NX218 1 μM, 48 hours, bEnd.3, individual replicates N1-N6",76.07 % of Control and 52.45 % of Control and 76.37 % of Control and 93.88 % of Control and 102.1 % of Control and 82.89 % of Control
same,"Expression of Claudin-5 at tight junction, Average","[1]; NX218 1 μM, 72 hours, bEnd.3, first experiment (Table 9), average of N1-N4",81.69 % of Control
same,Expression of Claudin-5 at tight junction,"[1]; NX218 1 μM, 72 hours, bEnd.3, first experiment (Table 9), individual replicates N1-N4",77.15 % of Control and 90.23 % of Control and 103.8 % of Control and 55.53 % of Control
same,"Expression of Claudin-5 at tight junction, Average","[1]; NX218 1 μM, 72 hours, bEnd.3, pooled data of 2 experiments (Table 12), average of N1-N7",96.00 % of Control
same,Expression of Claudin-5 at tight junction,"[1]; NX218 1 μM, 72 hours, bEnd.3, pooled data of 2 experiments (Table 12), individual replicates N1-N7",86.80 % of Control and 107.60 % of Control and 99.90 % of Control and 104.20 % of Control and 92.70 % of Control and 103.50 % of Control and 77.10 % of Control
same,"Expression of Claudin-5 at tight junction, Average","[1]; NX218 10 μM, 24 hours, bEnd.3, average of N1-N6",151.7 % of Control
same,Expression of Claudin-5 at tight junction,"[1]; NX218 10 μM, 24 hours, bEnd.3, individual replicates N1-N6",126.9 % of Control and 154.4 % of Control and 137 % of Control and 121.3 % of Control and 169.4 % of Control and 200.9 % of Control
same,"Expression of Claudin-5 at tight junction, Average","[1]; NX218 10 μM, 48 hours, bEnd.3, average of N1-N6",97.8 % of Control
same,Expression of Claudin-5 at tight junction,"[1]; NX218 10 μM, 48 hours, bEnd.3, individual replicates N1-N6",66.36 % of Control and 83.18 % of Control and 120.8 % of Control and 145.7 % of Control and 97.51 % of Control and 73.25 % of Control
same,"Expression of Claudin-5 at tight junction, Average","[1]; NX218 10 μM, 72 hours, bEnd.3, first experiment (Table 9), average of N1-N4",70.23 % of Control
same,Expression of Claudin-5 at tight junction,"[1]; NX218 10 μM, 72 hours, bEnd.3, first experiment (Table 9), individual replicates N1-N4",56.03 % of Control and 94.63 % of Control and 58.42 % of Control and 71.86 % of Control
same,"Expression of Claudin-5 at tight junction, Average","[1]; NX218 10 μM, 72 hours, bEnd.3, pooled data of 2 experiments (Table 12), average of N1-N7",97.80 % of Control
same,Expression of Claudin-5 at tight junction,"[1]; NX218 10 μM, 72 hours, bEnd.3, pooled data of 2 experiments (Table 12), individual replicates N1-N7",71.70 % of Control and 116.80 % of Control and 122.30 % of Control and 113.50 % of Control and 97.80 % of Control and 75.30 % of Control and 87.00 % of Control
same,"Expression of Claudin-5 at tight junction, Average","[1]; NX218 100 μM, 24 hours, bEnd.3, average of N1-N6",180.5 % of Control
same,Expression of Claudin-5 at tight junction,"[1]; NX218 100 μM, 24 hours, bEnd.3, individual replicates N1-N6",173.3 % of Control and 212.5 % of Control and 249.5 % of Control and 129 % of Control and 161.7 % of Control and 157.1 % of Control
same,"Expression of Claudin-5 at tight junction, Average","[1]; NX218 100 μM, 48 hours, bEnd.3, average of N1-N6",98.79 % of Control
same,Expression of Claudin-5 at tight junction,"[1]; NX218 100 μM, 48 hours, bEnd.3, individual replicates N1-N6",88.39 % of Control and 55.18 % of Control and 80.87 % of Control and 122.7 % of Control and 115.5 % of Control and 130.1 % of Control
same,"Expression of Claudin-5 at tight junction, Average","[1]; NX218 100 μM, 72 hours, bEnd.3, first experiment (Table 9), average of N1-N4",106.6 % of Control
same,Expression of Claudin-5 at tight junction,"[1]; NX218 100 μM, 72 hours, bEnd.3, first experiment (Table 9), individual replicates N1-N4",121.8 % of Control and 116 % of Control and 81.03 % of Control and 107.7 % of Control
same,"Expression of Claudin-5 at tight junction, Average","[1]; NX218 100 μM, 72 hours, bEnd.3, pooled data of 2 experiments (Table 12), average of N1-N7",119.10 % of Control
same,Expression of Claudin-5 at tight junction,"[1]; NX218 100 μM, 72 hours, bEnd.3, pooled data of 2 experiments (Table 12), individual replicates N1-N7",134.20 % of Control and 124.40 % of Control and 109.30 % of Control and 120.30 % of Control and 130.70 % of Control and 105.10 % of Control and 109.40 % of Control
same,"Claudin-5 levels, result in words","[1]; NX218 at 100 μM, pooled experiments, 72 hours",Increases of Claudin-5 levels were maintained for at-least 72 hours
same,"Claudin-5 levels, result in words","[1]; after 2 or 3 days treatment (Tables 8, 9)",levels were similar between control and NX218 conditions
same,Increase of occludin protein levels vs control,"[2]; 1 μM, 24 h, bEnd.3, p=0.0309",+26.3%
same,Increase of occludin protein levels vs control,"[2]; 10 μM, 24 h, bEnd.3, p=0.0053",+41.1%
same,Increase of occludin protein levels vs control,"[2]; 100 μM, 24 h, bEnd.3, p=0.0112",+36.8%
same,"Occludin protein levels, result in words","[2]; 1, 10 and 100 μM, 24 h, compared with control",significant increase of occludin protein levels
same,Expression of Occludin,"[2]; FIG. 6, 24-hour treatment",increases the expression of Occludin
same,"Expression of Occludin, Average","[2]; NX218 1 μM, 24 hours, bEnd.3, western blot",126.30 % of Control
same,Expression of Occludin,"[2]; NX218 1 μM, 24 hours, bEnd.3, western blot, individual replicates N1-N8",124.20 % of Control and 120.60 % of Control and 92.30 % of Control and 152.80 % of Control and 146.80 % of Control and 135.50 % of Control and 125.00 % of Control and 113.00 % of Control
same,"Expression of Occludin, Average","[2]; NX218 10 μM, 24 hours, bEnd.3, western blot",141.10 % of Control
same,Expression of Occludin,"[2]; NX218 10 μM, 24 hours, bEnd.3, western blot, individual replicates N1-N8",124.20 % of Control and 123.30 % of Control and 114.20 % of Control and 93.50 % of Control and 187.30 % of Control and 166.20 % of Control and 176.60 % of Control and 143.50 % of Control
same,"Expression of Occludin, Average","[2]; NX218 100 μM, 24 hours, bEnd.3, western blot",136.80 % of Control
same,Expression of Occludin,"[2]; NX218 100 μM, 24 hours, bEnd.3, western blot, individual replicates N1-N8",112.10 % of Control and 103.80 % of Control and 111.20 % of Control and 188.40 % of Control and 123.40 % of Control and 158.40 % of Control and 122.20 % of Control and 174.50 % of Control

# Reference: patent US20250152660A1, “SCO-spondin-derived polypeptides for treating biological barriers dysfunction” (AXOLTIS PHARMA, priority 2021, published 2025)
